Consider one compound from patent publication US12558432B2, “Biocompatible polymeric drug carriers for delivering active agents” (CIS BIOPHARMA AG, priority 2019, dated 2026).

For this data set, the system named is cell culture. Nature of the data set: cell culture experiments (toxic effects). It counts as cell-based. The settings on record: at concentrations of up to 5 mM.

`C=CC(=O)NCCCC[C@H](N)C(=O)O` [acryloyl-lysine, (S)-6-acrylamido-2-aminohexanoic acid]: the “toxic effects in cell culture experiments” value is “do not exhibit any toxic effects”.
